Test results published in ChEMBL document CHEMBL3797052 (Eur J Med Chem, 2016).

tested on: not listed separately; assay: Antiproliferative activity against human Caki1 cells assessed as cell growth at 10^-7 M after 48 hrs by sulforhodamine B assay; type: functional; settings: CAKI-1, 48 h, read-out: Activity

Q: For `CNC(=O)c1cc(Oc2ccc3nc(NC(=O)Nc4cc(C(F)(F)F)cc(C(F)(F)F)c4)sc3c2)ccn1`, which growth at 0.1 µM is on record?
A: Its growth at 0.1 µM is 94%.

tested on: NCI-H226; assay: Antiproliferative activity against human NCI-H226 cells assessed as growth inhibition after 48 hrs by sulforhodamine B assay; type: functional; settings: NCI-H226, 48 h

Q: For `CNC(=O)c1cc(Oc2ccc3nc(NC(=O)Nc4cc(C(F)(F)F)cc(C(F)(F)F)c4)sc3c2)ccn1`, which GI50 is on record?
A: The GI50 was 1.45 µM.

Q: And the TGI?
A: The TGI was 3.57 µM.

same assay, conditions: NCI-H226, 48 h, read-out: LC50 (the source's name)

Q: Which CC50 does the source give for `CNC(=O)c1cc(Oc2ccc3nc(NC(=O)Nc4cc(C(F)(F)F)cc(C(F)(F)F)c4)sc3c2)ccn1` here?
A: The CC50 was 8.79 µM.

tested on: KM12; assay: Antiproliferative activity against human KM12 cells assessed as cell growth at 10^-7 M after 48 hrs by sulforhodamine B assay; type: functional; settings: KM12, 48 h, read-out: Activity

Q: With `CNC(=O)c1cc(Oc2ccc3nc(NC(=O)Nc4cc(C(F)(F)F)cc(C(F)(F)F)c4)sc3c2)ccn1` as the compound, how does the growth at 0.1 µM read?
A: Its growth at 0.1 µM is 95%.

tested on: not listed separately; assay: Antiproliferative activity against human HCC2998 cells assessed as cell growth at 10^-8 M after 48 hrs by sulforhodamine B assay; type: functional; settings: HCC 2998, 48 h, read-out: Activity

Q: Which growth at 0.01 µM does the source give for `CNC(=O)c1cc(Oc2ccc3nc(NC(=O)Nc4cc(C(F)(F)F)cc(C(F)(F)F)c4)sc3c2)ccn1` here?
A: Its growth at 0.01 µM is 93%.

tested on: Malme-3M; assay: Antiproliferative activity against human MALME-3M cells assessed as growth inhibition after 48 hrs by sulforhodamine B assay; type: functional; settings: not given

Q: With `CNC(=O)c1cc(Oc2ccc3nc(NC(=O)Nc4cc(C(F)(F)F)cc(C(F)(F)F)c4)sc3c2)ccn1` as the compound, how does the GI50 read?
A: Its GI50 is 0.908 µM.

Q: What about the TGI of the same compound?
A: Its TGI is 2.49 µM.

same assay, conditions: read-out: LC50 (the source's name)

Q: With `CNC(=O)c1cc(Oc2ccc3nc(NC(=O)Nc4cc(C(F)(F)F)cc(C(F)(F)F)c4)sc3c2)ccn1` as the compound, how does the CC50 read?
A: Its CC50 is 6.41 µM.

tested on: not listed separately; assay: Antiproliferative activity against human IGROV1 cells assessed as cell growth at 10^-7 M after 48 hrs by sulforhodamine B assay; type: functional; settings: IGROV-1, 48 h, read-out: Activity

Q: Which growth at 0.1 µM does the source give for `CNC(=O)c1cc(Oc2ccc3nc(NC(=O)Nc4cc(C(F)(F)F)cc(C(F)(F)F)c4)sc3c2)ccn1` here?
A: The growth at 0.1 µM was 89%.

tested on: EKVX; assay: Antiproliferative activity against human EKVX cells assessed as cell growth at 10^-4 M after 48 hrs by sulforhodamine B assay; type: functional; settings: read-out: Activity

Q: With `CNC(=O)c1cc(Oc2ccc3nc(NC(=O)Nc4cc(C(F)(F)F)cc(C(F)(F)F)c4)sc3c2)ccn1` as the compound, how does the growth at 100 µM read?
A: Its growth at 100 µM is -56%.

tested on: not listed separately; assay: Antiproliferative activity against human OVCAR5 cells assessed as cell growth at 10^-7 M after 48 hrs by sulforhodamine B assay; type: functional; settings: OVCAR-5, 48 h, read-out: Activity

Q: Which growth at 0.1 µM does the source give for `CNC(=O)c1cc(Oc2ccc3nc(NC(=O)Nc4cc(C(F)(F)F)cc(C(F)(F)F)c4)sc3c2)ccn1` here?
A: The growth at 0.1 µM was 98%.

tested on: not listed separately; assay: Antiproliferative activity against human HCT15 cells assessed as cell growth at 10^-7 M after 48 hrs by sulforhodamine B assay; type: functional; settings: HCT-15, 48 h, read-out: Activity

Q: With `CNC(=O)c1cc(Oc2ccc3nc(NC(=O)Nc4cc(C(F)(F)F)cc(C(F)(F)F)c4)sc3c2)ccn1` as the compound, how does the growth at 0.1 µM read?
A: The growth at 0.1 µM was 100%.

tested on: M14; assay: Antiproliferative activity against human M14 cells assessed as cell growth at 10^-6 M after 48 hrs by sulforhodamine B assay; type: functional; settings: M14, 48 h, read-out: Activity

Q: Which growth at 1 µM does the source give for `CNC(=O)c1cc(Oc2ccc3nc(NC(=O)Nc4cc(C(F)(F)F)cc(C(F)(F)F)c4)sc3c2)ccn1` here?
A: The growth at 1 µM was 77%.

tested on: A498; assay: Antiproliferative activity against human A498 cells assessed as cell growth at 10^-7 M after 48 hrs by sulforhodamine B assay; type: functional; settings: A498, 48 h, read-out: Activity

Q: For `CNC(=O)c1cc(Oc2ccc3nc(NC(=O)Nc4cc(C(F)(F)F)cc(C(F)(F)F)c4)sc3c2)ccn1`, which growth at 0.1 µM is on record?
A: Its growth at 0.1 µM is 111%.

tested on: not listed separately; assay: Antiproliferative activity against human HCT116 cells assessed as cell growth at 10^-8 M after 48 hrs by sulforhodamine B assay; type: functional; settings: HCT-116, 48 h, read-out: Activity

Q: Which growth at 0.01 µM does the source give for `CNC(=O)c1cc(Oc2ccc3nc(NC(=O)Nc4cc(C(F)(F)F)cc(C(F)(F)F)c4)sc3c2)ccn1` here?
A: The growth at 0.01 µM was 102%.

tested on: not listed separately; assay: Antiproliferative activity against human Hs 578T cells assessed as cell growth at 10^-4 M after 48 hrs by sulforhodamine B assay; type: functional; settings: read-out: Activity

Q: With `CNC(=O)c1cc(Oc2ccc3nc(NC(=O)Nc4cc(C(F)(F)F)cc(C(F)(F)F)c4)sc3c2)ccn1` as the compound, how does the growth at 100 µM read?
A: Its growth at 100 µM is -38%.

tested on: 786-0; assay: Antiproliferative activity against human 786-0 cells assessed as cell growth at 10^-8 M after 48 hrs by sulforhodamine B assay; type: functional; settings: 786-0, 48 h, read-out: Activity

Q: For `CNC(=O)c1cc(Oc2ccc3nc(NC(=O)Nc4cc(C(F)(F)F)cc(C(F)(F)F)c4)sc3c2)ccn1`, which growth at 0.01 µM is on record?
A: The growth at 0.01 µM was 92%.

tested on: T47D; assay: Antiproliferative activity against human T47D cells assessed as cell growth at 10^-6 M after 48 hrs by sulforhodamine B assay; type: functional; settings: read-out: Activity

Q: With `CNC(=O)c1cc(Oc2ccc3nc(NC(=O)Nc4cc(C(F)(F)F)cc(C(F)(F)F)c4)sc3c2)ccn1` as the compound, how does the growth at 1 µM read?
A: The growth at 1 µM was 32%.

tested on: KM12; assay: Antiproliferative activity against human KM12 cells assessed as cell growth at 10^-6 M after 48 hrs by sulforhodamine B assay; type: functional; settings: KM12, 48 h, read-out: Activity

Q: Which growth at 1 µM does the source give for `CNC(=O)c1cc(Oc2ccc3nc(NC(=O)Nc4cc(C(F)(F)F)cc(C(F)(F)F)c4)sc3c2)ccn1` here?
A: Its growth at 1 µM is 25%.

tested on: M14; assay: Antiproliferative activity against human M14 cells assessed as cell growth at 10^-7 M after 48 hrs by sulforhodamine B assay; type: functional; settings: M14, 48 h, read-out: Activity

Q: With `CNC(=O)c1cc(Oc2ccc3nc(NC(=O)Nc4cc(C(F)(F)F)cc(C(F)(F)F)c4)sc3c2)ccn1` as the compound, how does the growth at 0.1 µM read?
A: The growth at 0.1 µM was 104%.

tested on: not listed separately; assay: Antiproliferative activity against human SF295 cells assessed as cell growth at 10^-4 M after 48 hrs by sulforhodamine B assay; type: functional; settings: SF-295, 48 h, read-out: Activity

Q: Which growth at 100 µM does the source give for `CNC(=O)c1cc(Oc2ccc3nc(NC(=O)Nc4cc(C(F)(F)F)cc(C(F)(F)F)c4)sc3c2)ccn1` here?
A: The growth at 100 µM was -71%.

tested on: MDA-MB-435; assay: Antiproliferative activity against human MDA-MB-435 cells assessed as cell growth at 10^-8 M after 48 hrs by sulforhodamine B assay; type: functional; settings: MDA-MB-435, 48 h, read-out: Activity

Q: With `CNC(=O)c1cc(Oc2ccc3nc(NC(=O)Nc4cc(C(F)(F)F)cc(C(F)(F)F)c4)sc3c2)ccn1` as the compound, how does the growth at 0.01 µM read?
A: Its growth at 0.01 µM is 92%.

tested on: not listed separately; assay: Antiproliferative activity against human NCI-ADR-RES cells assessed as cell growth at 10^-4 M after 48 hrs by sulforhodamine B assay; type: functional; settings: read-out: Activity

Q: For `CNC(=O)c1cc(Oc2ccc3nc(NC(=O)Nc4cc(C(F)(F)F)cc(C(F)(F)F)c4)sc3c2)ccn1`, which growth at 100 µM is on record?
A: The growth at 100 µM was -49%.

tested on: not listed separately; assay: Antiproliferative activity against human LOXIMVI cells assessed as cell growth at 10^-4 M after 48 hrs by sulforhodamine B assay; type: functional; settings: LOX IMVI, read-out: Activity

Q: For `CNC(=O)c1cc(Oc2ccc3nc(NC(=O)Nc4cc(C(F)(F)F)cc(C(F)(F)F)c4)sc3c2)ccn1`, which growth at 100 µM is on record?
A: Its growth at 100 µM is -62%.
